# From patent publication US20230097157A1, “Bicyclic Pyridin-2-one and pyrimidin-4-one Derivatives Useful As a Factor XIa Inhibitors” (Janssen Pharmaceutica NV, priority 2021, published 2023)
# Where two headings read alike, the source gives them in different places.
# What was measured:
# [1] = target: human plasma kallikrein (Homo sapiens, UniProt P03952); assay: Kallikrein inhibition assay (FLINT) utilizing a quenched AMC peptide substrate Z-Gly-Pro-Arg-AMC; assay type: biochemical; settings: kinetic (KIN) reads, read-out: Kallikrein KIN Inh IC50
# Procedure, shortened: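 IC50 from a 4-parameter logistic fit of % inhibition from 11 concentrations (3-fold, top 1 μM, 2% DMSO). Compound pre-incubated 30 min with 2 nM enzyme in Tris pH 7.5, NaCl, CaCl2, BSA, CHAPS, then 50 μM AMC peptide substrate added. Fluorescence (340/440 nm) followed every 5 min for 30 min at room temperature.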
# [2] = target: Factor XIa (Homo sapiens, UniProt P03951); assay: Factor XIa inhibition assay (FLINT) utilizing a fluorophore-quencher pair peptide substrate 5Fam-[…]-K5Tamra; assay type: biochemical; settings: kinetic (KIN) reads, read-out: FXIa KIN Inh IC50
# Procedure, shortened: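 Compounds were tested as 11-point 3-fold dilutions from 100 nM (2% DMSO). They were preincubated 30 min with FXIa in 50 mM Tris pH 7.5, 5 mM CaCl2, then 15 μM fluorophore-quencher peptide was added. Cleavage was followed at 485/520 nm over 30 min, and IC50 was derived by 4-parameter logistic fit.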
# Factor XIa, sequence (P03951 388-625 limits assumed): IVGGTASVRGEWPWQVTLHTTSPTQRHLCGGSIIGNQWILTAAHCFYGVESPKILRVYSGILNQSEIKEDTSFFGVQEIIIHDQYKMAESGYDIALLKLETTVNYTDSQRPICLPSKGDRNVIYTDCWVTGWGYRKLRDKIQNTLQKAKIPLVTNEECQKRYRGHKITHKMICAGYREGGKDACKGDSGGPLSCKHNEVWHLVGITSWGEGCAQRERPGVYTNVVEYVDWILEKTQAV
# Factor XIa, sequence (P03951 19-387 partner limits assumed): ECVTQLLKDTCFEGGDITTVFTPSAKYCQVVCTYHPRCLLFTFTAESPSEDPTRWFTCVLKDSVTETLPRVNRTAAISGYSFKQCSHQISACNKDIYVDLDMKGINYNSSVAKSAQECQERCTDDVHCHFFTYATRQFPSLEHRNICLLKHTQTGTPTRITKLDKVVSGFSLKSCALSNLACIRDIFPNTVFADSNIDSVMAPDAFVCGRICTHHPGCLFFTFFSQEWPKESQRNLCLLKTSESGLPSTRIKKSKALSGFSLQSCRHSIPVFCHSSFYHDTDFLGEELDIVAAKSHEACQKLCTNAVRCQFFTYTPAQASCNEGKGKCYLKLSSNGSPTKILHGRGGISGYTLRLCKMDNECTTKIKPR
# human plasma kallikrein, sequence (P03952 391-638 limits assumed): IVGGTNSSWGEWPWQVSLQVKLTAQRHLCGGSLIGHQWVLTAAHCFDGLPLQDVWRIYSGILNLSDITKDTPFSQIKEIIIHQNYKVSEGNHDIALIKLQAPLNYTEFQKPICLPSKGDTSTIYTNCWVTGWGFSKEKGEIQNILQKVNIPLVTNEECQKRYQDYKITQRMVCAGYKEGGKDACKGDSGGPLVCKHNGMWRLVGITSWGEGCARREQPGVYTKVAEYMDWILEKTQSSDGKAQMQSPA
# human plasma kallikrein, sequence (P03952 20-390 partner limits assumed): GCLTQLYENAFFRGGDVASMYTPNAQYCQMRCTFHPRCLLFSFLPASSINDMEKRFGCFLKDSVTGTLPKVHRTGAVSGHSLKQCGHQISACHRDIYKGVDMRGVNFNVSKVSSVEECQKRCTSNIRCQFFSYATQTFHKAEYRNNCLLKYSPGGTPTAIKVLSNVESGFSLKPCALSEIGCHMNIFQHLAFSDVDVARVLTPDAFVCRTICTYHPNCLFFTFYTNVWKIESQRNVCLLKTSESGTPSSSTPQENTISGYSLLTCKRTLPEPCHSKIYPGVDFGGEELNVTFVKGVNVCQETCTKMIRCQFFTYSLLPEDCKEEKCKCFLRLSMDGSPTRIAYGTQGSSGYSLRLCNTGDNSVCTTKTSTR
SMILES,IC50 ([1]; values in nM),IC50 ([2]; values in nM),IC50 ([1]; unit μM),IC50 ([2]; unit μM)
"CC(O)c1nccc(-c2cnc([C@@H]3CC4(CC4)c4cc(-c5c(-n6cnnn6)ccc(Cl)c5F)cc(=O)n43)[nH]2)c1F (single isomer, unassigned) [Example 5, (3'S)-7′-(3-Chloro-2-fluoro-6-(1H-tetrazol-1-yl)phenyl)-3′-(5-(3-fluoro-2-(1-hydroxyethyl)pyridin-4-yl)-1H-imidazol-2-yl)-2′,3′-dihydro-5′H-spiro[cyclopropane-1,1′-indolizin]-5′-one]",,> 100 nM,> 1000 nM,
"Nc1ccc(-c2cnc([C@@H]3CC4(CC4)c4cc(-c5c(-n6cnnn6)ccc(Cl)c5F)cc(=O)n43)[nH]2)c(F)n1 [Example 25, (S)-3′-(5-(6-Amino-2-fluoropyridin-3-yl)-1H-imidazol-2-yl)-7′-(3-chloro-2-fluoro-6-(1H-tetrazol-1-yl)phenyl)-2′,3′-dihydro-5′H-spiro[cyclopropane-1,1′-indolizin]-5′-one]",14.1 nM,0.6 nM,,
"C[C@@H]1C[C@@H](c2ncc(-c3ccnc(F)c3)[nH]2)n2c1cc(-c1c(-n3cnnn3)ccc(Cl)c1F)cc2=O (relative stereo) [Example 45, (1*R,3*S)-7-(3-Chloro-2-fluoro-6-(1H-tetrazol-1-yl)phenyl)-3-(5-(2-fluoropyridin-4-yl)-1H-imidazol-2-yl)-1-methyl-2,3-dihydroindolizin-5(1H)-one]",,,> 10000 nM,> 10000 nM
"C[C@H]1C[C@@H](c2ncc(-c3cc4c(cn3)NC(=O)CC4)[nH]2)n2c1cc(-c1c(-n3cnnn3)ccc(Cl)c1F)cc2=O (single isomer, unassigned) [Example 9, 6-(2-((1*S,3*S)-7-(3-Chloro-2-fluoro-6-(1H-tetrazol-1-yl)phenyl)-1-methyl-5-oxo-1,2,3,5-tetrahydroindolizin-3-yl)-1H-imidazol-5-yl)-3,4-dihydro-1,7-naphthyridin-2(1H)-one]",~21.4 nM,6.9 nM,,
"C[C@H]1C[C@@H](c2cnc(-c3ccc(N)nc3F)[nH]2)n2c1cc(-c1c(-n3cnnn3)ccc(Cl)c1F)cc2=O (stereo in doubt) [Example 54, (1 S*,3S*)-3-(2-(6-Amino-2-fluoropyridin-3-yl)-1H-imidazol-5-yl)-7-(3-chloro-2-fluoro-6-(1H-tetrazol-1-yl)phenyl)-1-methyl-2,3-dihydroindolizin-5(1H)-one]",,430 nM,> 10000 nM,
"C[C@@H]1C[C@H](c2ncc(-c3ccc(N)nc3F)[nH]2)n2c1cc(-c1c(-n3cnnn3)ccc(Cl)c1F)cc2=O (stereo in doubt) [Example 56, (1*R,3*R)-3-(5-(6-Amino-2-fluoropyridin-3-yl)-1H-imidazol-2-yl)-7-(3-chloro-2-fluoro-6-(1H-tetrazol-1-yl)phenyl)-1-methyl-2,3-dihydroindolizin-5(1H)-one]",,,> 10000 nM,1200 nM
"C[C@@H]1C[C@@H](c2ncc(-c3cnc(N)c(F)c3)[nH]2)n2c1cc(-c1c(-n3cnnn3)ccc(Cl)c1F)cc2=O (relative stereo) [Example 62, (1*R,3*S)-3-(5-(6-amino-5-fluoropyridin-3-yl)-1H-imidazol-2-yl)-7-(3-chloro-2-fluoro-6-(1H-tetrazol-1-yl)phenyl)-1-methyl-2,3-dihydroindolizin-5(1H)-one]",18.1 nM,19.6 nM,,
"C[C@H]1C[C@@H](c2[nH]c(-c3ccc(N)nc3F)nc2F)n2c1cc(-c1c(-n3cnnn3)ccc(Cl)c1F)cc2=O [Example 34, (1S,3S)-3-(2-(6-Amino-2-fluoropyridin-3-yl)-4-fluoro-1H-imidazol-5-yl)-7-(3-chloro-2-fluoro-6-(1H-tetrazol-1-yl)phenyl)-1-methyl-2,3-dihydroindolizin-5(1H)-one]",7.3 nM,0.1 nM,,
"Cc1nc(N)ccc1-c1cnc([C@@H]2C[C@@H](C)c3cc(-c4c(-n5cnnn5)ccc(Cl)c4F)cc(=O)n32)[nH]1 [Example 50, (1R,3S)-3-(5-(6-Amino-2-methylpyridin-3-yl)-1H-imidazol-2-yl)-7-(3-chloro-2-fluoro-6-(1H-tetrazol-1-yl)phenyl)-1-methyl-2,3-dihydroindolizin-5(1H)-one]",16 nM,1.4 nM,,
"C[C@H]1C[C@H](c2ncc(-c3ccc(N)nc3Cl)[nH]2)n2c1cc(-c1c(-n3cnnn3)ccc(Cl)c1F)cc2=O (relative stereo) [Example 37, (1*S,3*R)-3-(5-(6-Amino-2-chloropyridin-3-yl)-1H-imidazol-2-yl)-7-(3-chloro-2-fluoro-6-(1H-tetrazol-1-yl)phenyl)-1-methyl-2,3-dihydroindolizin-5(1H)-one]",,283 nM,7800 nM,
"COC(=O)Nc1ccc(-c2cnc([C@H]3C[C@@H](C)c4nc(-c5c(-n6cnnn6)ccc(Cl)c5F)cc(=O)n43)[nH]2)cc1 (stereo in doubt) [Example 127, Methyl (4-(2-((6*R,8*R)-2-(3-Chloro-2-fluoro-6-(1H-tetrazol-1-yl)phenyl)-8-methyl-4-oxo-4,6,7,8-tetrahydropyrrolo[1,2-a]pyrimidin-6-yl)-1H-imidazol-5-yl)phenyl)carbamate]",723 nM,190 nM,,
"C[C@H]1C[C@@H](c2ncc(-c3cnc(N)c(F)c3)[nH]2)n2c1cc(-c1c(-n3cnnn3)ccc(Cl)c1F)cc2=O (relative stereo) [Example 61, (1*S,3*S)-3-(5-(6-Amino-5-fluoropyridin-3-yl)-1H-imidazol-2-yl)-7-(3-chloro-2-fluoro-6-(1H-tetrazol-1-yl)phenyl)-1-methyl-2,3-dihydroindolizin-5(1H)-one]",,,> 10000 nM,> 10000 nM

# The next lines start with the values.
IC50 ([1]; values in nM),IC50 ([2]; values in nM),IC50 ([1]; unit μM),IC50 ([2]; unit μM),SMILES
736 nM,> 100 nM,,,"[2H]C([2H])([2H])OC(=O)Nc1ccc(-c2cnc(C3CC4(CC4)c4nc(-c5c(-n6cnnn6)ccc(Cl)c5F)cc(=O)n43)[nH]2)cc1 (single isomer, unassigned) [Example 71, Methyl-d3 (R*)-(4-(2-(2′-(3-Chloro-2-fluoro-6-(1H-tetrazol-1-yl)phenyl)-4′-oxo-6′,7′-dihydro-4′H-spiro[cyclopropane-1,8′-pyrrolo[1,2-a]pyrimidin]-6′-yl)-1H-imidazol-5-yl)phenyl)carbamate]"
~45.9 nM,5.1 nM,,,"C[C@H]1C[C@@H](c2ncc(-c3ncc(N)nc3F)[nH]2)n2c1nc(-c1c(-n3cnnn3)ccc(Cl)c1F)cc2=O (single isomer, unassigned) [Example 89, (6*S,8S)-6-(5-(5-Amino-3-fluoropyrazin-2-yl)-1H-imidazol-2-yl)-2-(3-chloro-2-fluoro-6-(1H-tetrazol-1-yl)phenyl)-8-methyl-7,8-dihydropyrrolo[1,2-a]pyrimidin-4(6H)-one]"
819 nM,> 100 nM,,,"C[C@H]1C[C@@H](c2ncc(-c3ncc(N)nc3C(F)F)[nH]2)n2c1nc(-c1c(-n3cnnn3)ccc(Cl)c1F)cc2=O (relative stereo) [Example 86, (6*S,8*S)-6-(5-(5-Amino-3-(difluoromethyl)pyrazin-2-yl)-1H-imidazol-2-yl)-2-(3-chloro-2-fluoro-6-(1H-tetrazol-1-yl)phenyl)-8-methyl-7,8-dihydropyrrolo[1,2-a]pyrimidin-4(6H)-one]"
,258 nM,4300 nM,,"C[C@@H]1C[C@H](c2ncc(-c3ccc(N)nc3F)[nH]2)n2c1nc(-c1c(-n3cnnn3)ccc(Cl)c1F)cc2=O (stereo in doubt) [Example 138, (6R*,8R*)-6-(5-(6-Amino-2-fluoropyridin-3-yl)-1H-imidazol-2-yl)-2-(3-chloro-2-fluoro-6-(1H-tetrazol-1-yl)phenyl)-8-methyl-7,8-dihydropyrrolo[1,2-a]pyrimidin-4(6H)-one]"
12 nM,1.2 nM,,,"C[C@@H]1C[C@H](c2nc(-c3ncc(N)nc3Cl)c[nH]2)n2c1nc(-c1c(-n3cnnn3)ccc(Cl)c1F)cc2=O (single isomer, unassigned) [Example 94, (6*R,8R)-6-(4-(5-Amino-3-chloropyrazin-2-yl)-1H-imidazol-2-yl)-2-(3-chloro-2-fluoro-6-(1H-tetrazol-1-yl)phenyl)-8-methyl-7,8-dihydropyrrolo[1,2-a]pyrimidin-4(6H)-one]"
,,> 10000 nM,6100 nM,"COC(=O)Nc1ccc(-c2cnc([C@H]3C[C@@H](C)c4nc(-c5c(-n6cnnn6)ccc(Cl)c5F)cc(=O)n43)[nH]2)cn1 (stereo in doubt) [Example 117, Methyl (5-(2-((6*R,8*R)-2-(3-Chloro-2-fluoro-6-(1H-tetrazol-1-yl)phenyl)-8-methyl-4-oxo-4,6,7,8-tetrahydropyrrolo[1,2-a]pyrimidin-6-yl)-1H-imidazol-5-yl)pyridin-2-yl)carbamate]"
21.7 nM,23.7 nM,,,"C[C@@H]1C[C@H](c2ncc(-c3ccc4nn(C)cc4c3)[nH]2)n2c1cc(-c1c(-n3cnnn3)ccc(Cl)c1F)cc2=O (stereo in doubt) [Example 47, (1*R,3*R)-7-(3-Chloro-2-fluoro-6-(1H-tetrazol-1-yl)phenyl)-1-methyl-3-(5-(2-methyl-2H-indazol-5-yl)-1H-imidazol-2-yl)-2,3-dihydroindolizin-5(1H)-one]"
669 nM,92.2 nM,,,"Cc1nc(N)sc1-c1cnc([C@@H]2CC3(CC3)c3nc(-c4c(-n5cnnn5)ccc(Cl)c4F)cc(=O)n32)[nH]1 [Example 131, (S)-6′-(5-(2-Amino-4-methylthiazol-5-yl)-1H-imidazol-2-yl)-2′-(3-chloro-2-fluoro-6-(1H-tetrazol-1-yl)phenyl)-6′,7′-dihydro-4′H-spiro[cyclopropane-1,8′-pyrrolo[1,2-a]pyrimidin]-4′-one]"
